{"source": "patent US8691777B2", "about": "“Combination therapy” (Emory University, priority 2011, dated 2014)", "key": {"[1]": {"test_system": "tsc2ang1 cells", "assay": "proliferation assay with tsc2ang1 cells (Coulter counter)", "assay_type": "cell-based, murine", "conditions": "rapamycin 5 nM, imatinib 10 μM, 24 hours, vs DMSO control", "description": "10^4 tsc2ang1 cells per well were plated in 24-well dishes in triplicate. The next day, fresh medium containing the compounds or vehicle controls was added. Cells were incubated at 37° C. Tsc2ang1 (ATCC CRL 2620) is a murine cell line derived from a cutaneous sarcoma that arose in the extremity of a mouse heterozygous for tsc2; these mice develop cutaneous sarcomas at a frequency of about 10 to 15%. The cells were cultured in complete DMEM medium supplemented with 10% FBS (Sigma Aldrich, St Louis, Mo.). […] Cells were treated with vehicle control (DMSO), rapamycin (5 nM), imatinib (10 μM) or imatinib (10 μM)+rapamycin (5 nM) (shown along X-axis) for 24 h and counted using a Coulter counter. The Y-axis represents cell number with error bars representing the SEM."}, "[2]": {"test_system": "MMP-2", "assay": "gelatin zymography of conditioned media of tsc2ang1 cells", "assay_type": "cell-based, murine", "conditions": "24 hours, vs DMSO-treated control", "procedure": "The presence and activity of specific MMP species were detected using gelatin zymography. An aliquot of each conditioned media sample was centrifuged at 4,000 rpm for 1-5 min at 4° C. and supernatant was used. A buffer of 4% SDS, 0.15 mol/L Tris (pH 6.8), 20% glycerol and 0.5% (w/v) bromophenol blue was added to the conditioned media sample. […] Gels were then incubated over night at 37° C. in substrate buffer containing 50 mmol/L Tris-HCL (pH 8), 5 mmol/L CaCl2 and 0.02% NaN3. After incubation, gels were stained for 30 min in 0.5% Coomassie Blue R-250 dissolved in acetic acid, isopropyl alcohol and water (1:3:6); destained in acetic acid, ethanol and water (1:3:6). The finalized gel was scored for the presence/absence MMP activity by a blinded evaluator and photographed."}, "[3]": {"biological_target": "PDGFR-β (Mus musculus, UniProt P05622)", "sequence (P05622 32-1098)": "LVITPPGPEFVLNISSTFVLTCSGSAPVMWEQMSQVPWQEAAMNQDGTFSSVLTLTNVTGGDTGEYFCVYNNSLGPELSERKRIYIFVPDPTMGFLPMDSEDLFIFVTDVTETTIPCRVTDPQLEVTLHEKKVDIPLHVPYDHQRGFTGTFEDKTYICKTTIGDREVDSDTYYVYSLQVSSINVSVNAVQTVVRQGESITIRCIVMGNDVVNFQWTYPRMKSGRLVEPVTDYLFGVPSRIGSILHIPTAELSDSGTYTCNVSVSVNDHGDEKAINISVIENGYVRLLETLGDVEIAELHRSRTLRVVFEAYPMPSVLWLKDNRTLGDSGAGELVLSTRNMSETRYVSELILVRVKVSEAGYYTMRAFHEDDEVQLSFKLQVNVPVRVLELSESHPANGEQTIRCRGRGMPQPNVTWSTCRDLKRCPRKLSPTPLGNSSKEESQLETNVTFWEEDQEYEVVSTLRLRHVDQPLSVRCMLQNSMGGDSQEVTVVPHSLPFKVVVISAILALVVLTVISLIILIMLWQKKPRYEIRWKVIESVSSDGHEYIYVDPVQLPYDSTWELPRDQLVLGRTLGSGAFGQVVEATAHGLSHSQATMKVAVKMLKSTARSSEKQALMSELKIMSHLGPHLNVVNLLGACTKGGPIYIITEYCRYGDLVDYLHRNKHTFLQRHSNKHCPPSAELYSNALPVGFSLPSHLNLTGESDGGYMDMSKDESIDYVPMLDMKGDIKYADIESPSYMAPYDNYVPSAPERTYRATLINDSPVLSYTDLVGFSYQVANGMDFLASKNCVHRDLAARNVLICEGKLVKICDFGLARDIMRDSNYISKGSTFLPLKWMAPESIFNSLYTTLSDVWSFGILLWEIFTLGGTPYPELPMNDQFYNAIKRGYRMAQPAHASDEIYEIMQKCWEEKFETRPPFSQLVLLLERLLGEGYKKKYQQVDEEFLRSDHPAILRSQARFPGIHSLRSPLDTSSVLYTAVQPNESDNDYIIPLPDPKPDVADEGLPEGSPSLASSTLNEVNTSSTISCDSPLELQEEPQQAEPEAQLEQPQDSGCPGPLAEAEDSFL", "assay": "Western blot of PDGFR-β and phospho-PDGFR-β in Tsc2ang1 cells", "conditions": "imatinib 10 μm, rapamycin 10 nM, vs DMSO control", "procedure": "The impact of imatinib (10 μm), rapamycin (10 nM), and a combination of rapamycin and imatinib on the phosphorylated PDGFR-β signaling pathway was tested in Tsc2ang1cells.\nLysates of Tsc2ang1 cells treated with vehicle or indicated drugs were prepared in NP-40 lysis buffer (1% NP-40, 150 mmol/L NaCl, 10% glycerol, 20 mmol/L HEPES, 1 mmol/L phenylmethylsulfonyl fluoride, 2.5 mmol/L EDTA, 100 μmol/L Na3VO4, and 1% aprotinin) Protein concentration in cleared lysates was determined using an Eppendorf BioPhotometer. Samples were resolved using SDS-PAGE (National Diagnostics) and transferred to nitrocellulose membranes. The membranes were blocked with 5% nonfat dry milk in 10 mmol/L Tris/0.1% Tween 20/100 mmol/L NaCl and incubated with primary antibodies followed by horseradish peroxidase-conjugated secondary antibody. The immunoreactive bands were visualized by enhanced chemiluminescence (Amersham Biosciences). The antibodies used were: Phospho-PDGFR-β antibody (Tyr 1021) (Cell signaling Laboratories); Phospho-PDGFR-β antibody (Tyr 1009) (Cell Signaling Laboratories); Aurora kinase A antibody (4718) (Cell signaling Laboratories), Aurorakinase B (3094) antibody (Cell signaling Laboratories) monoclonal anti-β-tubulin antibody (Sigma) was used as a loading control."}}, "data": [{"smiles": "Cc1ccc(NC(=O)c2ccc(CN3CCN(C)CC3)cc2)cc1Nc1nccc(-c2cccnc2)n1", "note": "[imatinib]", "values": [{"measurement": "viable cell number", "setting": "[1]", "value": "decrease in the viable cell numbers"}, {"measurement": "MMP-2 gelatinase activity", "setting": "[2]", "value": "decrease in the level of MMP-2"}, {"measurement": "PDGFR β phosphorylation", "setting": "[3]", "value": "downregulation of PDGFR β phosphorylation"}]}]}
